Measured values: ChEMBL document CHEMBL4043290, “Structure-based Design of Pyridone-Aminal eFT508 Targeting Dysregulated Translation by Selective Mitogen-activated Protein Kinase Interacting Kinases 1 and 2 (MNK1/2) Inhibition” (J Med Chem, 2018)
Blank lines part the entries; values can stand above or below the molecule they belong to.

How the values were obtained:
[1] = Metabolic stability in mouse liver microsomes assessed as parent compound remaining at 1 uM after 30 mins by LC-ESI-TOF/MS method; format: ADME, microsome; settings: read-out: Stability
[2] = Metabolic stability in rat liver microsomes assessed as parent compound remaining at 1 uM after 30 mins by LC-ESI-TOF/MS method; format: ADME, microsome; settings: read-out: Stability
[3] = Metabolic stability in human liver microsomes assessed as parent compound remaining at 1 uM after 30 mins by LC-ESI-TOF/MS method; format: ADME, microsome; settings: read-out: Stability
[4] = Oral bioavailability in Balb/c mouse at 10 mg/kg by LC-ESI-TOF/MS or LC-ESI-MS/MS method; format: ADME, organism-based; settings: in vivo
[5] = Oral bioavailability in Sprague-Dawley rat at 10 mg/kg by LC-ESI-TOF/MS or LC-ESI-MS/MS method; format: ADME, organism-based; settings: in vivo
[6] = Oral bioavailability in Beagle dog at 3 mg/kg by LC-ESI-TOF/MS or LC-ESI-MS/MS method; format: ADME, organism-based, Canis lupus familiaris; settings: in vivo
[7] = Oral bioavailability in cynomolgus monkey at 3 mg/kg by LC-ESI-TOF/MS or LC-ESI-MS/MS method; format: ADME, organism-based, Macaca fascicularis; settings: in vivo
[8] = biological target: T1, Serine/threonine-protein kinase 17A (Homo sapiens) (UniProt Q9UEE5); assay: Inhibition of DRAK1 (unknown origin) at 1 uM relative to control
T1 sequence (whole entry): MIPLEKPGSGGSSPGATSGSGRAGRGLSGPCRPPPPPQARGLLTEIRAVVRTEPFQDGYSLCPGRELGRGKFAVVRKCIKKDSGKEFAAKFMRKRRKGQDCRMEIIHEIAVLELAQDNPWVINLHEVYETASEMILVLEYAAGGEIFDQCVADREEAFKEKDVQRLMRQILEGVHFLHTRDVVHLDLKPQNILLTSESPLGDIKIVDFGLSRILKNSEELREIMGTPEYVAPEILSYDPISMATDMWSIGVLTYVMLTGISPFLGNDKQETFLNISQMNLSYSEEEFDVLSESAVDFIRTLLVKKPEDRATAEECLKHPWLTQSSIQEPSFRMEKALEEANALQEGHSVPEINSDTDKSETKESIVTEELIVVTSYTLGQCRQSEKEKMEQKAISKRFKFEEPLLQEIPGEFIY

[9] = biological target: MAP kinase-interacting serine/threonine-protein kinase 1 (Homo sapiens, UniProt Q9BUB5)
[10] = biological target: Platelet-derived growth factor receptor alpha (Homo sapiens) (UniProt P16234); assay: Inhibition of PDGFRA (unknown origin) at 1 uM relative to control
HCT-116 = assay: Antiproliferative activity against human HCT116 cells after 72 hrs by CellTiter-Glo assay; format: functional, cell-based; settings: HCT-116, 72 h
SW-620 = assay: Antiproliferative activity against human SW620 cells after 72 hrs by CellTiter-Glo assay; format: functional, cell-based; settings: SW-620, 72 h
[11] = biological target: Vascular endothelial growth factor receptor 2 (Homo sapiens) (UniProt P35968); assay: Inhibition of KDR (unknown origin) at 1 uM relative to control
[12] = biological target: Tyrosine-protein kinase ABL1 (Homo sapiens) (UniProt P00519); assay: Inhibition of Abl1 (unknown origin) at 1 uM relative to control
[13] = biological target: Proto-oncogene tyrosine-protein kinase receptor Ret (Homo sapiens) (UniProt P07949); assay: Inhibition of RET (unknown origin) at 1 uM relative to control
[14] = biological target: Receptor-type tyrosine-protein kinase FLT3 (Homo sapiens) (UniProt P36888); assay: Inhibition of FLT3 (unknown origin) at 1 uM relative to control
[15] = biological target: Tyrosine-protein kinase Yes (Homo sapiens) (UniProt P07947); assay: Inhibition of YES1 (unknown origin) at 1 uM relative to control
[16] = biological target: Dual specificity tyrosine-phosphorylation-regulated kinase 1A (Homo sapiens) (UniProt Q13627); assay: Inhibition of DYRK1A (unknown origin) at 1 uM relative to control
[17] = biological target: Platelet-derived growth factor receptor beta (Homo sapiens) (UniProt P09619); assay: Inhibition of PDGFRB (unknown origin) at 1 uM relative to control
[18] = biological target: Tyrosine-protein kinase Lck (Homo sapiens) (UniProt P06239); assay: Inhibition of LCK (unknown origin) at 1 uM relative to control
[19] = biological target: Aurora kinase A (Homo sapiens) (UniProt O14965); assay: Inhibition of aurora A (unknown origin) at 1 uM relative to control
[20] = biological target: MAP kinase-interacting serine/threonine-protein kinase 2 (Homo sapiens, UniProt Q9HBH9)
[21] = biological target: MAP kinase-interacting serine/threonine-protein kinase 1/2 (Homo sapiens, UniProt Q9HBH9+Q9BUB5)
PC-3 = assay: Antiproliferative activity against human PC3 cells after 72 hrs by CellTiter-Glo assay; format: functional, cell-based; settings: PC-3, 72 h
[22] = biological target: T2, Serine/threonine-protein kinase BRSK1 (Homo sapiens) (UniProt Q8TDC3); assay: Inhibition of BRSK1 (unknown origin) at 1 uM relative to control
T2 sequence (whole entry): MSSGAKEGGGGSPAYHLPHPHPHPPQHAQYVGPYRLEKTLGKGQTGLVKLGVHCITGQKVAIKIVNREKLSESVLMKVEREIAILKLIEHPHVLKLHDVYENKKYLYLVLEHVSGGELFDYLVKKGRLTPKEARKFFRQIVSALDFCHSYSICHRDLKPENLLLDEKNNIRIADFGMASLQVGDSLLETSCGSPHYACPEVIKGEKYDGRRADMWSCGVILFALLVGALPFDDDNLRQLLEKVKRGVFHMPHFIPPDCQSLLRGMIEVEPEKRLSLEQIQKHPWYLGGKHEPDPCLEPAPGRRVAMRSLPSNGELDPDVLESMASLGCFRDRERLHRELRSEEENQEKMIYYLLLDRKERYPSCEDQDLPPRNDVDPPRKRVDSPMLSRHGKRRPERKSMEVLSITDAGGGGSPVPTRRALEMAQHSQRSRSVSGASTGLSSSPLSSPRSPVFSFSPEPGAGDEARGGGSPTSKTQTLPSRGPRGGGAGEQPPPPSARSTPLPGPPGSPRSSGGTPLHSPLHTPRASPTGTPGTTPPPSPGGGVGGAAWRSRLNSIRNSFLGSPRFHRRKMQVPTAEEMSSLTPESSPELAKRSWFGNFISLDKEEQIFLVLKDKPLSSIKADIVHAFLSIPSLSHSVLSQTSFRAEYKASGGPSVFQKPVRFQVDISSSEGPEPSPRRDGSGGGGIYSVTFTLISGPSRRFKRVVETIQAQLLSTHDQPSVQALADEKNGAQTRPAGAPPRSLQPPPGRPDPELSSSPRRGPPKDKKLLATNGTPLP

[23] = biological target: Dual specificity tyrosine-phosphorylation-regulated kinase 2 (Homo sapiens) (UniProt Q92630); assay: Inhibition of DYRK2 (unknown origin) at 1 uM relative to control
physchem = settings: octanol/water
in vitro = settings: human, Caco-2
[24] = biological target: Cyclin-dependent kinase 2 (Homo sapiens) (UniProt P24941); assay: Inhibition of CDK2 (unknown origin) at 1 uM relative to control
[25] = biological target: Dual specificity protein kinase CLK1 (Homo sapiens) (UniProt P49759); assay: Inhibition of CLK1 (unknown origin) at 1 uM relative to control
[26] = biological target: Serine/threonine-protein kinase pim-1 (Homo sapiens) (UniProt P11309); assay: Inhibition of PIM1 (unknown origin) at 1 uM relative to control
[27] = biological target: Calcium/calmodulin-dependent protein kinase type II subunit alpha (Homo sapiens) (UniProt Q9UQM7); assay: Inhibition of CAMK2A (unknown origin) at 1 uM relative to control
[28] = biological target: Rho-associated protein kinase 1 (Homo sapiens) (UniProt Q13464); assay: Inhibition of ROCK1 (unknown origin) at 1 uM relative to control
[29] = biological target: Interleukin-1 receptor-associated kinase 1 (Homo sapiens) (UniProt P51617); assay: Inhibition of IRAK1 (unknown origin) at 1 uM relative to control
[30] = biological target: 5'-AMP-activated protein kinase catalytic subunit alpha-1 (Homo sapiens) (UniProt Q13131); assay: Inhibition of AMPKA1 (unknown origin) at 1 uM relative to control
[31] = biological target: 5'-AMP-activated protein kinase subunit beta-1 (Homo sapiens) (UniProt Q9Y478); assay: Inhibition of AMPKB1 (unknown origin) at 1 uM relative to control
[32] = biological target: 5'-AMP-activated protein kinase subunit gamma-1 (Homo sapiens) (UniProt P54619); assay: Inhibition of AMPKG1 (unknown origin) at 1 uM relative to control
[33] = biological target: High affinity nerve growth factor receptor (Homo sapiens) (UniProt P04629); assay: Inhibition of TRKA (unknown origin) at 1 uM relative to control
[34] = biological target: Serine/threonine-protein kinase B-raf (Homo sapiens) (UniProt P15056); assay: Inhibition of BRAF (unknown origin) at 1 uM relative to control
[35] = biological target: Dual specificity mitogen-activated protein kinase kinase 2 (Homo sapiens) (UniProt P36507); assay: Inhibition of MEK2 (unknown origin) at 1 uM relative to control
[36] = biological target: Ribosomal protein S6 kinase alpha-1 (Homo sapiens) (UniProt Q15418); assay: Inhibition of RSK1 (unknown origin) at 1 uM relative to control

Chain of MAP kinase-interacting serine/threonine-protein kinase 2 (Q9HBH9 whole entry): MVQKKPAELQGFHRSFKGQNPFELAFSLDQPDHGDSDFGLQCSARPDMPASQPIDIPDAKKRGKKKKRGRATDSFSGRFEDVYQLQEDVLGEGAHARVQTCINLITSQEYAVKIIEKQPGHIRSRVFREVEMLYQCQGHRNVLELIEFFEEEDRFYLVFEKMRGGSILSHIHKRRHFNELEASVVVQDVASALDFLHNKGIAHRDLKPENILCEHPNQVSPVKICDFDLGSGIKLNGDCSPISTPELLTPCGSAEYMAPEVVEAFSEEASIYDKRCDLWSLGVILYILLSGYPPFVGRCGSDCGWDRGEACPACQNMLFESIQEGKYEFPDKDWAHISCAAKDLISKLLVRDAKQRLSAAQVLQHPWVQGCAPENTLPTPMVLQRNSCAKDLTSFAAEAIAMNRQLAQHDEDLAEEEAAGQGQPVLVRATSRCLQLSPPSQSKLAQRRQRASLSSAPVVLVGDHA
Chain of MAP kinase-interacting serine/threonine-protein kinase 1 (Q9BUB5 whole entry): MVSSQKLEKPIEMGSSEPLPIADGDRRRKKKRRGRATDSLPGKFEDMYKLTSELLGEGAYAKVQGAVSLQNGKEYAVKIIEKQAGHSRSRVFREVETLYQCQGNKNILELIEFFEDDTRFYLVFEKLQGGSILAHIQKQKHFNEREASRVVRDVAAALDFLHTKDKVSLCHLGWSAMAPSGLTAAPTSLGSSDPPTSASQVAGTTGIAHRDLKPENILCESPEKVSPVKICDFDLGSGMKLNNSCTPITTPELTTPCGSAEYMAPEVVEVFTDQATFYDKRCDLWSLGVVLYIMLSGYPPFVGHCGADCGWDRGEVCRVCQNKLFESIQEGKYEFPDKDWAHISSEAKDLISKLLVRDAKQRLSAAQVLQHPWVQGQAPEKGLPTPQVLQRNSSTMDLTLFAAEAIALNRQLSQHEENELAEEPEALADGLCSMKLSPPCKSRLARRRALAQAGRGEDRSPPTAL
Chain of Vascular endothelial growth factor receptor 2 (Homo sapiens) (P35968 whole entry): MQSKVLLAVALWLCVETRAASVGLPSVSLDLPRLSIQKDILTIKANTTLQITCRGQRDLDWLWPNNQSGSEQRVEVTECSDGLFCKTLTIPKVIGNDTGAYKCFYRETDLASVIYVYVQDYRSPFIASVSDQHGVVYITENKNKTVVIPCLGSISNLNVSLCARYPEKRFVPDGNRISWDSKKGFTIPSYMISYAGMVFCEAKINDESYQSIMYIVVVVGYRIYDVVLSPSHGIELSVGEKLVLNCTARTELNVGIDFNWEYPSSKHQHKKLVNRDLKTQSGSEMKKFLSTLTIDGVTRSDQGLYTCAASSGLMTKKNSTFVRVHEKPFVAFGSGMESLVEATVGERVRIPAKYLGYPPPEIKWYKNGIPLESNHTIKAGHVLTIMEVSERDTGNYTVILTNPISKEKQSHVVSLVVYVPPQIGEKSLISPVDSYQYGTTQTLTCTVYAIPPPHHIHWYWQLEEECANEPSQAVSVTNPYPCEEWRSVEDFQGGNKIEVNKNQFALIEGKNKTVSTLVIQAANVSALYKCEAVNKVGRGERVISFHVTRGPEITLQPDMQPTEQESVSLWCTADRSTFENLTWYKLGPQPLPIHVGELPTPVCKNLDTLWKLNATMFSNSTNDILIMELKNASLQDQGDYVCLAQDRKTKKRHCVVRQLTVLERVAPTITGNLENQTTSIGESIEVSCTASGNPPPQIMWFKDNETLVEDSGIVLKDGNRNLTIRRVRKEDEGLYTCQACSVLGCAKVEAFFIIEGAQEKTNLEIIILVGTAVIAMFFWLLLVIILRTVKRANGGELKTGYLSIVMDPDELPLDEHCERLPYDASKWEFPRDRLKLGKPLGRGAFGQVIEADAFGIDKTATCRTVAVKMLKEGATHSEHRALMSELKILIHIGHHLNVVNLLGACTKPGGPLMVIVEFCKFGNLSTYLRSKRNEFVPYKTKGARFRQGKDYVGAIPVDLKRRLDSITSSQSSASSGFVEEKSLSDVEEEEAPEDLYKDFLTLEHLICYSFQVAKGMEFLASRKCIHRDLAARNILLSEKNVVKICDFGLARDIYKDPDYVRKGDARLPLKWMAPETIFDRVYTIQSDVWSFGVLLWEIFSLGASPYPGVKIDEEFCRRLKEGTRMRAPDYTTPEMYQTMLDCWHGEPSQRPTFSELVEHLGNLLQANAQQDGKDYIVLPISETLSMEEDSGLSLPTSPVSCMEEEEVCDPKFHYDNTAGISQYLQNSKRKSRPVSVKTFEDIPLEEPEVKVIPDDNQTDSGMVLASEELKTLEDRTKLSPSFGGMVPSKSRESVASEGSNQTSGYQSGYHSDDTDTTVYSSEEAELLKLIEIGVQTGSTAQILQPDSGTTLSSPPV
Chain of Receptor-type tyrosine-protein kinase FLT3 (Homo sapiens) (P36888 whole entry): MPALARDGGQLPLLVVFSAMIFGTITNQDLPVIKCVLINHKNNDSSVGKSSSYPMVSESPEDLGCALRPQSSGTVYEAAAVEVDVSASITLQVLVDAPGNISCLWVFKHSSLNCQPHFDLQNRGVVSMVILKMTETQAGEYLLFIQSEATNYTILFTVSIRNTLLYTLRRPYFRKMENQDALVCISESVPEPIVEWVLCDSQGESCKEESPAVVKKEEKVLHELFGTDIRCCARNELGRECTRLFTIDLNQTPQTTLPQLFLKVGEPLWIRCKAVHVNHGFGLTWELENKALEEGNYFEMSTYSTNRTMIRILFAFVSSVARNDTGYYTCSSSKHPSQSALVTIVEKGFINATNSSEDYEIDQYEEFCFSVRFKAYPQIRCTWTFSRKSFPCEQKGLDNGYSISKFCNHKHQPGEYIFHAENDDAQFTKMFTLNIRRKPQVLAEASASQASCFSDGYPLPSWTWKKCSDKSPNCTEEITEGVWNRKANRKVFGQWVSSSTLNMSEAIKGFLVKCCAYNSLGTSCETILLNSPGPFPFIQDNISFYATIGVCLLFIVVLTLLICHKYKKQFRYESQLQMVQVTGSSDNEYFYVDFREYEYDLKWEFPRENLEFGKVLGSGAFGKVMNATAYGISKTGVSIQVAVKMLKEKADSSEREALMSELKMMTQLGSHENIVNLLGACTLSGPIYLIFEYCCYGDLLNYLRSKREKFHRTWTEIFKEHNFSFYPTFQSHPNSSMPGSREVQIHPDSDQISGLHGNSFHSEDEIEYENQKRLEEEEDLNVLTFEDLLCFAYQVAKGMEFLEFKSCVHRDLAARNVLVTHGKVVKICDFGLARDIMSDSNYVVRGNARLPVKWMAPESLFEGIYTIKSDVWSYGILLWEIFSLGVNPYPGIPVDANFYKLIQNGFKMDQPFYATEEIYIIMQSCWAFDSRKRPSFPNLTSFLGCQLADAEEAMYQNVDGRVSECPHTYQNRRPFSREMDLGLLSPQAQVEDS
Chain of Tyrosine-protein kinase ABL1 (Homo sapiens) (P00519 whole entry): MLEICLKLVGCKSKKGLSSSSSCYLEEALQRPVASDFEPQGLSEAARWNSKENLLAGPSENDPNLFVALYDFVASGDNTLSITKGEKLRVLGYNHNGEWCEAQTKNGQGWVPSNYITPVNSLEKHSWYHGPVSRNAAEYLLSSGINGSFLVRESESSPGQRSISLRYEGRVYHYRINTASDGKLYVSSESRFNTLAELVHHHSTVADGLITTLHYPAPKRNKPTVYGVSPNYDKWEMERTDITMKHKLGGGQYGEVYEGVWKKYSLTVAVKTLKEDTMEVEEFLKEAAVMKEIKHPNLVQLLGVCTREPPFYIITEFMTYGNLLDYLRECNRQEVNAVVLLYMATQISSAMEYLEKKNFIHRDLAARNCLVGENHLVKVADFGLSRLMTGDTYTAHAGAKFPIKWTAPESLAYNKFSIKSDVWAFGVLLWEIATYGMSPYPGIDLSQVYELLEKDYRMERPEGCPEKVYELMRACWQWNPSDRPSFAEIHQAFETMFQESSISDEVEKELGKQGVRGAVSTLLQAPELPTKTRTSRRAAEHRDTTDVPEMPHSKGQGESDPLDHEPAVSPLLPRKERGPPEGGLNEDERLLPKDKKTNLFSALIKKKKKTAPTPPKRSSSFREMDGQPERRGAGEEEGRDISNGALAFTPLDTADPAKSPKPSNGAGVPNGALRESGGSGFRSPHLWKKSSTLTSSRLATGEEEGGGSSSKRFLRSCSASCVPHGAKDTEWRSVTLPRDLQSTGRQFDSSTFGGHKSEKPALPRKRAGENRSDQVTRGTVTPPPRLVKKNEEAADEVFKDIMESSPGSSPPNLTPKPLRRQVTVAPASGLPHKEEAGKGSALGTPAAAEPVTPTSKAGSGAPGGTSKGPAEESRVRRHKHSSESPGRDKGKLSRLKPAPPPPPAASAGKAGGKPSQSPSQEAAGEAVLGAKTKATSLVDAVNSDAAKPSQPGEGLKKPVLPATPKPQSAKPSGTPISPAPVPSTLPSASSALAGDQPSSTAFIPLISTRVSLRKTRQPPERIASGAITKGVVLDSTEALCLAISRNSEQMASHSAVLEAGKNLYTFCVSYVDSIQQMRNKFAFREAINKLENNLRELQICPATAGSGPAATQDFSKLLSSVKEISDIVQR
Chain of Dual specificity mitogen-activated protein kinase kinase 2 (Homo sapiens) (P36507 whole entry): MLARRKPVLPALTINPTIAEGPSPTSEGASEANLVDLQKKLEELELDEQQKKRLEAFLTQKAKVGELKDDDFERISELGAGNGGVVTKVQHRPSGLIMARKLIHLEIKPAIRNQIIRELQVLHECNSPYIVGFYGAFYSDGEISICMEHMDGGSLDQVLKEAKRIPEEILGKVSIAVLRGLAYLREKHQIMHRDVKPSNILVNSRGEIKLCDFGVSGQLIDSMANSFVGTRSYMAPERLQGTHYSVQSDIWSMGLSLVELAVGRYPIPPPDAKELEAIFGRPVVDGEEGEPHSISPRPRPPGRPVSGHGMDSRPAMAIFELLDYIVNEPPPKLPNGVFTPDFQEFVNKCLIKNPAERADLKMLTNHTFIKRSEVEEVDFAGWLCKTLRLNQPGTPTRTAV

remaining at 0.5 h, 1 µM [1]: 99%
remaining at 0.5 h, 1 µM [2]: 100%
remaining at 0.5 h, 1 µM [3]: 97%
bioavailability [4]: 85%
bioavailability [5]: 56%
bioavailability [6]: > 100%
bioavailability [7]: 58%
inhibition [8]: 68%
IC50 [9]: 1.4 nM
SMILES: Cc1cc(Nc2cc(N)ncn2)c(=O)n2c1C(=O)NC21CCC(F)(F)CC1

IC50 [9]: 60 nM
SMILES: NC(=O)c1ccc(Nc2ncnc3[nH]cnc23)cc1

IC50 [9]: 5500 nM
SMILES: c1cc(-c2cc(C3CCNCC3)[nH]n2)ccn1

inhibition [10]: 10%
EC50 (HCT-116): 2700 nM
EC50 (SW-620): 2800 nM
inhibition [11]: 10%
inhibition [12]: 10%
inhibition [13]: 10%
inhibition [14]: 10%
inhibition [15]: 10%
inhibition [16]: 10%
inhibition [17]: 10%
inhibition [18]: 10%
inhibition [19]: 10%
SMILES: CC1(c2cccc(Cl)c2)NC(=O)c2c(Cl)cc(Nc3cc(NC(=O)C4CC4)ncn3)c(=O)n21 (stereo not given)

IC50 [20]: 0.36 nM
IC50 [21]: 0.084 nM
SMILES: Nc1ncnc(Nc2cc(Cl)c3n(c2=O)C2(CCCCC2)NC3=O)c1Cl

IC50 [9]: 100 nM
IC50 [20]: 61 nM
IC50 [21]: 4400 nM
SMILES: CC1(C)NC(=O)c2ccc(Nc3ccncn3)cc21

EC50 (PC-3): > 30000 nM
EC50 (HCT-116): > 30000 nM
EC50 (SW-620): > 30000 nM
inhibition [11]: 4%
inhibition [12]: 4%
inhibition [13]: 4%
inhibition [14]: 4%
SMILES: CC1(C)NC(=O)c2ccc(Nc3cc(NC(=O)C4CC4)ncn3)c(=O)n21

IC50 [9]: 3000 nM
SMILES: NC(=O)c1ccc(Nc2ccncn2)c(=O)[nH]1

IC50 [9]: 690 nM
SMILES: NC(=O)c1ccc(Nc2ccncn2)cc1

IC50 [9]: 6400 nM
SMILES: NC(=O)c1cccn2c(-c3cccnc3)cnc12

inhibition [11]: 74%
remaining at 0.5 h, 1 µM [1]: 95%
remaining at 0.5 h, 1 µM [2]: 100%
remaining at 0.5 h, 1 µM [3]: 100%
bioavailability [4]: 79%
bioavailability [5]: 50%
bioavailability [6]: > 100%
bioavailability [7]: 54%
inhibition [8]: 88%
inhibition [22]: 52%
inhibition [23]: 67%
logP (physchem): 1.8
Papp A→B at 2 h, 5 µM (in vitro): 0.9 ×10⁻⁶ cm/s
SMILES: CC1(C)NC(=O)c2c(Cl)cc(Nc3cc(N)ncn3)c(=O)n21

IC50 [9]: 3800 nM
SMILES: c1ccc(-c2n[nH]c3ccc(-c4ccncc4)cc23)cc1

IC50 [9]: 23 nM
SMILES: O=C1NCc2cc(Nc3ncnc4[nH]cnc34)ccc21

IC50 [9]: 1800 nM
SMILES: c1cnn2c(-c3ccncc3)cnc2c1

IC50 [9]: 4700 nM
SMILES: Cc1n[nH]c(C)c1-c1ccc(C2CCCN2)cc1 (stereo not given)

IC50 [9]: 1.9 nM
IC50 [20]: 5.7 nM
IC50 [21]: 430 nM
SMILES: O=C1NCc2cc(Nc3cc(NC(=O)C4CC4)ncn3)ccc21

inhibition [10]: 17%
inhibition [24]: 17%
EC50 (PC-3): 590 nM
EC50 (HCT-116): 210 nM
EC50 (SW-620): 310 nM
inhibition [11]: 17%
inhibition [14]: 17%
inhibition [16]: 17%
inhibition [17]: 17%
inhibition [25]: 17%
inhibition [26]: 17%
inhibition [27]: 17%
inhibition [28]: 17%
inhibition [29]: 17%
inhibition [30]: 17%
inhibition [31]: 17%
inhibition [32]: 17%
inhibition [33]: 17%
inhibition [34]: 17%
inhibition [35]: 17%
inhibition [36]: 17%
IC50 [9]: 1.5 nM
IC50 [20]: 7.8 nM
IC50 [21]: 120 nM
SMILES: N[C@H]1C[C@H](Oc2ccc3ncc(-c4ccc5cnccc5c4)n3n2)C1

IC50 [9]: 28 nM
IC50 [20]: 45 nM
IC50 [21]: 28000 nM
SMILES: CC1NC(=O)c2ccc(Nc3ccncn3)cc21 (stereo not given)
